# In ChEMBL document CHEMBL1641527, “Design and synthesis of aryl ether and sulfone hydroxamic acids as potent histone deacetylase (HDAC) inhibitors” (Bioorg Med Chem Lett, 2011):
# Assay: Inhibition of HDAC by [3H]acetate-radiolabelled peptide substrate assay with scintillation counting
row,SMILES,IC50
1,CC(/C=C/C(=O)O)=C\C(C)S(=O)(=O)c1ccc(Cl)cc1 (stereo not drawn),> 1000 nM
2,CC(/C=C/C(=O)O)=C\C(C)Oc1cccc(Cl)c1 (stereo not drawn),> 1000 nM
3,CC(/C=C/C(=O)O)=C\COc1ccc(C(C)C)cc1,> 1000 nM
4,CC(/C=C/C(=O)O)=C\C(C)S(=O)(=O)c1ccc(C)cc1C (stereo not drawn),> 1000 nM
5,COc1cccc(S(=O)(=O)C(C)/C=C(C)/C=C/C(=O)NO)c1 (stereo not drawn),> 1000 nM
6,CC(/C=C/C(=O)NO)=C\COc1cccc(Cl)c1,188 nM
7,CC(/C=C/C(=O)NO)=C\COc1ccc(Br)cc1Br,890 nM
8,CC(/C=C/C(=O)O)=C\C(C)Oc1cccc(-c2ccccc2)c1 (stereo not drawn),> 1000 nM
9,CC(/C=C/C(=O)O)=C\C(C)Oc1cccc(C(F)(F)F)c1 (stereo not drawn),> 50000 nM
10,CC(/C=C/C(=O)NO)=C\COc1cccc(Cc2ccccc2)c1,1200 nM
11,CC(/C=C/C(=O)NO)=C\C(C)S(=O)(=O)c1nc(C)cc(C)n1 (stereo not drawn),> 1000 nM
12,CC(/C=C/C(=O)NO)=C\C(C)Oc1cccc(-c2ccccc2)c1 (stereo not drawn),55 nM
13,CC(/C=C/C(=O)O)=C\C(C)S(=O)(=O)c1ccc(C)c(C)c1 (stereo not drawn),> 1000 nM
14,CC(/C=C/C(=O)O)=C\C(C)Oc1ccc(C(C)C)cc1 (stereo not drawn),> 50000 nM
15,CC(/C=C/C(=O)NO)=C\COc1cccc(-c2ccccc2)c1,41 nM
16,COc1ccc2ccc(OC/C=C(C)/C=C/C(=O)NO)cc2c1,20 nM
17,CC(/C=C/C(=O)NO)=C\C(C)Oc1ccc(-c2ccc(Br)cc2)cc1 (stereo not drawn),162 nM
18,CCCCCCOc1ccc(OC(C)/C=C(C)/C=C/C(=O)O)cc1 (stereo not drawn),> 1000 nM
19,COc1ccc(S(=O)(=O)C(C)/C=C(C)/C=C/C(=O)NO)cc1 (stereo not drawn),> 1000 nM

row,SMILES,IC50
1,CC(=O)Nc1ccc(S(=O)(=O)C(C)/C=C(C)/C=C/C(=O)NO)cc1 (stereo not drawn),> 1000 nM
2,CC(/C=C/C(=O)O)=C\COc1cccc(-c2ccccc2)c1,> 1000 nM
3,CC(/C=C/C(=O)O)=C\C(C)Oc1cccc(Cc2ccccc2)c1 (stereo not drawn),> 50000 nM
4,CC(/C=C/C(=O)O)=C\C(C)S(=O)(=O)c1ccc(F)cc1 (stereo not drawn),> 1000 nM
5,CC(/C=C/C(=O)NO)=C\C(C)S(=O)(=O)c1ccc(Cl)c(Cl)c1 (stereo not drawn),> 1000 nM
6,CC(/C=C/C(=O)O)=C\COc1cccc2c1CCCC2,> 1000 nM
7,CC(/C=C/C(=O)O)=C\C(C)Oc1ccc(Br)cc1Br (stereo not drawn),> 1000 nM
8,CC(/C=C/C(=O)O)=C\C(C)Oc1cccc2c1CCCC2 (stereo not drawn),> 50000 nM
9,CC(/C=C/C(=O)NO)=C\C(C)S(=O)(=O)c1cnc2cc(C)ccc2c1 (stereo not drawn),> 1000 nM
10,COc1ccc(OC/C=C(C)/C=C/C(=O)O)cc1,> 1000 nM
11,COc1ccc(OC/C=C(C)/C=C/C(=O)NO)cc1,68 nM
12,CC(/C=C/C(=O)NO)=C\C(C)S(=O)(=O)c1ccc(C)cc1 (stereo not drawn),> 1000 nM
13,CC(/C=C/C(=O)NO)=C\COc1cccc(C(F)(F)F)c1,18 nM
14,CC(/C=C/C(=O)NO)=C\C(C)S(=O)(=O)c1cn(C)cn1 (stereo not drawn),> 1000 nM
15,CC(/C=C/C(=O)NO)=C\C(C)S(=O)(=O)c1ccc(Br)cc1 (stereo not drawn),> 1000 nM
16,CC(/C=C/C(=O)NO)=C\[C@@H](C)C(=O)c1ccc(N(C)C)cc1 [TRICHOSTATIN],3 nM
17,CC(=O)c1ccc(OC(C)/C=C(C)/C=C/C(=O)NO)cc1 (stereo not drawn),> 50000 nM
18,CC(/C=C/C(=O)O)=C\C(C)S(=O)(=O)c1ccc(Br)cc1 (stereo not drawn),> 1000 nM
19,CCCCCCOc1ccc(OC(C)/C=C(C)/C=C/C(=O)NO)cc1 (stereo not drawn),1100 nM
